Results reported in US20120046186A1, “Gene Expression Markers for Prediction of Response to Platinum-Based Chemotherapy Drugs” (priority 2010, published 2012).

Test system: HCT 116 cell line
Experiment: cDNA overexpression of LTBR and TMEM30A: oxaliplatin IC50, cell viability
Type: cell-based, human
Conditions: 72 h
Excerpt: FIGS. 5A-5C show the validation of genes identified in the siRNA screen for genes regulating sensitivity or resistance to oxaliplatin. The effect of siRNA-silencing or cDNA overexpression on the IC50 of oxaliplatin was expressed as the log2 fold-shift of the mean IC50 of siRNA-treated (or cDNA-overexpressing) cells relative to the mean IC50 of non-silencing siRNA control-treated (or vector-alone) cells. […] Data represent mean±SEM (n=3).
Full-length LTBR and TMEM30A open reading frames were cloned into pCMV-XL4 (Origene, Rockville, Md.) and validated by sequencing. Transfection was performed using Turbofectin 8.0® (Origene, Rockville, Md.) in a 96-well format as per manufacturer's instructions using 100 ng cDNA per well. Following a 4 hr incubation, 10 μl per well of an 11-point, 2-fold serial dilution of oxaliplatin (50 μM maximum) was then added. Assays were performed in triplicate, using the empty pCMV-XL4 vector as negative control, with biological replicates. […] Overexpression of cDNA was validated by qRT-PCR using the High-Capacity cDNA Reverse Transcription Kit® (Life Technologies, Carlsbad, Calif.) and qPCR using the 7900 HT Fast Real-Time PCR System® (Life Technologies, Carlsbad, Calif.) with gene-specific primers (ABI, Carlsbad, Calif.).

O=C1[O][Pt]2([NH][C@@H]3CCCC[C@H]3[NH]2)[O]C1=O [oxaliplatin]
increase of IC50 of oxaliplatin (transient overexpression of full-length LTBR vs empty pCMV-XL4 vector): > 2 fold
increase of IC50 of oxaliplatin (transient overexpression of full-length TMEM30A vs empty pCMV-XL4 vector): > 2 fold
